Laboratory results from patent US20090023666A1, “Modulators of Hypoxia Inducible Factor-1 and Related Uses” (priority 2006, published 2009).

Tests used:
[1] = tested on: 5-aminoimidazole-4-carbox-amide riboside (AICAR); assay: AICAR-RA reporter assay; type: cell-based; conditions: indicative of the inhibition of glucose metabolism, read-out: AICAR-RA ED50
A549 = assay: cells; type: cell-based; conditions: Homo sapiens, A549, read-out: APA (A549) IC50
Method: (§1) FIG. 8 is a graph depicting the mRNA levels of α-1 and α-3 isoforms quantitated by real time RT-PCR (TaqMan) using fluorescent labeled TaqMan probes. Anti-proliferation (IC50 values) activity of BNC4 on indicated cell lines was determined by MTS assay. Total alpha levels (al+a3) were plotted against (1/IC50) X100 values.

Caki-1 (CAKI) = assay: cells; type: cell-based; conditions: Homo sapiens, CAKI-1, read-out: APA (Caki-1) IC50
Method: as §1

Na-K-ATPase [2] = assay: Na-K-ATPase enzyme assay (inorganic phosphate liberated from ATP), pig brain; type: biochemical; conditions: Pig brain; read-out: ATPase Inh, IC50 Pig brain
Method: (§2) Compounds were tested for their activity on Na-K-ATPase enzyme in an in vitro enzyme assay. The ATPase activity was assayed as the amount of inorganic phosphate liberated from ATP by Dog Kidney or Porcine cerebral cortex Na-K-ATPase.

Na-K-ATPase [3] = molecular target: T1, Na-K-ATPase (Canis lupus familiaris, UniProt P50997); assay: Na-K-ATPase enzyme assay (inorganic phosphate liberated from ATP), dog kidney; type: biochemical
T1 construct: liberated from ATP by Dog Kidney or Porcine cerebral cortex Na-K-ATPase; from tissue; host or cells: dog kidney
Method: as §2

A549 sentinel line = assay: Hypoxic stress response induced by cytotoxic agents in A549 sentinel line; type: cell-based; conditions: chemotherapeutic agent alone
Text: FIGS. 7A-7E are graphs depicting the stress response of A549 Sentinel Line induced by treatment with Gemcitabine (FIG. 7A) or Gemcitabine in the presence of indicated compound (FIG. 7B-7D). Untreated (control) sample is shown in shadow. […] Similar results can be achieved for other chemotherapeutic agents which induce hypoxic stress, such as paclitaxel, carboplatin, and mitoxantrone.
Similar results were obtained with carboplatin (not shown).

Panc-1 tumors = assay: In vivo activity against Panc-1 human pancreatic xenograft; parameters: species or system nude mice; conditions: Gemcitabine 40 mg/kg q3d × 4
Method: Panc-1 tumors were injected subcutaneously (sc) into the flanks of male nude mice. After the tumors reached 60 mg in size, osmotic pumps (model 2002, Alzet Inc., flow rate 0.5 μl/hr) containing 15 mg/ml of BP244 were implanted sc on the opposite sides of the mice. The control animals received pumps containing vehicle (10% captisol, Cyclex Inc.). The mice treated with standard chemotherapy agent received intra-peritoneal injections of Gemcitabine at 40 mg/kg every 3 days for 4 treatments (q3d×4). The experiment was terminated when the control group tumor size reached an average of about 1 gram. Upon termination, the mice were weighed, sacrificed and their tumors excised. The tumors were weighed and the mean tumor weight per group was calculated.
A titration experiment was first performed on BP244 to determine its minimum effective dose against Panc-1 human pancreatic xenograft in nude mice. BP244 (sc, osmotic pumps) was first tested at 15, 10 and 5 mg/ml using Alzet pumps as in previous experiments. Gemcitabine (40 mg/kg; q3d×4, i.p.) was also included in the experiment as a comparison. […]

[4] = in vivo; cited from earlier work
Panc-1 (PANC) = assay: Anti-proliferative activity (APA), Panc-1; type: cell-based; conditions: Homo sapiens, PANC-1, read-out: APA (Panc-1) IC50
Method: as §1

SMILES	EC50 [1]	IC50 (A549)	IC50 (Caki-1 (CAKI))	IC50 (Na-K-ATPase [2])	further results
CC12CCC(OC(=O)C3CCNCC3)C=C1CCC1C2CCC2(C)C(c3ccc(=O)oc3)CCC12O (centres unmarked)	101 nM	20 nM	120 nM	136 nM	
CC12CCC(OC(=O)c3ccc(C#N)cc3)C=C1CCC1C2CCC2(C)C(c3ccc(=O)oc3)CCC12O (centres unmarked)	130 nM	55 nM	84 nM	453 nM	
C=CCON=C1C=C2CCC3C(CCC4(C)C(c5ccc(=O)oc5)CCC34O)C2(C)CC1 (centres unmarked)		9 nM	40 nM	116 nM	
CC(=O)N1CCC(C(=O)O[C@@H]2C=C3CCC4C(CC[C@]5(C)[C@@H](c6ccc(=O)oc6)CC[C@]45O)[C@@]3(C)CC2)CC1 (some centres unmarked)	133 nM	15 nM	342 nM	396 nM	IC50 (Na-K-ATPase [3]): 270 nM
Nc1ccn([C@@H]2O[C@H](CO)[C@@H](O)C2(F)F)c(=O)n1 [Gemcitabine, reference compound]					hypoxic response visualized by A549 sentinel line (A549 sentinel line): further induce hypoxic response; % TGI (d24) (Panc-1 tumors): 65%; % Wt Change (d24) (Panc-1 tumors): 2.60%; Av. Tumor Weight (Panc-1 tumors): 414.3 mg
COC1O[C@@H]2C(=O)[C@H](C)OC(O[C@@H]3C=C4CCC5C(CC[C@]6(C)[C@@H](c7ccc(=O)oc7)CC[C@]56O)[C@@]4(C)CC3)[C@@H]2O1 (some centres unmarked)			26 nM	169 nM	
C[C@@H]1O[C@@H](O[C@H]2C[C@@H](O)[C@]3(CO)[C@H]4[C@H](O)C[C@]5(C)[C@@H](C6=CC(=O)OC6)CC[C@]5(O)[C@@H]4CC[C@]3(O)C2)[C@H](O)[C@H](O)[C@H]1O [BNC1, ouabain]					max. plasma concentration [4]: about 0.03 μg/mL
CN(C)CCN=C1CC[C@@]2(C)C(CCC3C2CC[C@]2(C)[C@@H](c4ccc(=O)oc4)CC[C@]32O)C1 (some centres unmarked)		25 nM	109 nM	171 nM	
CN(C)CCON=C1C=C2CCC3C(CCC4(C)C(c5ccc(=O)oc5)CCC34O)C2(C)CC1 (centres unmarked)		2 nM	24 nM	85 nM	
CCCNC(=O)OC1C=C2CCC3C(CCC4(C)C(c5ccc(=O)oc5)CCC34O)C2(C)CC1 (centres unmarked)	102 nM	19 nM	67 nM	198 nM	
C[C@]12CCC(NCCN3CCOCC3)CC1CCC1C2CC[C@]2(C)[C@@H](c3ccc(=O)oc3)CC[C@]12O (some centres unmarked)		101 nM	276 nM	356 nM	
C[C@@H]1CC(O[C@@H]2C=C3CCC4C(CC[C@]5(C)[C@@H](c6ccc(=O)oc6)CC[C@]45O)[C@@]3(C)CC2)[C@H](O)[C@H](O)[C@@H]1O (some centres unmarked)		9 nM	24 nM	129 nM	
CCON=C1C=C2CCC3C(CCC4(C)C(c5ccc(=O)oc5)CCC34O)C2(C)CC1 (centres unmarked)		14 nM	19 nM	93 nM	
C[C@]12CCC(N)C=C1CCC1C2CC[C@]2(C)[C@@H](c3ccc(=O)oc3)CC[C@]12O (some centres unmarked)		5 nM	72 nM	93 nM	
CCCCNC(=O)OC1C=C2CCC3C(CCC4(C)C(c5ccc(=O)oc5)CCC34O)C2(C)CC1 (centres unmarked)	68 nM	24 nM	46 nM	206 nM	
C[C@@H]1OC(O[C@@H]2C=C3CCC4C(CC[C@]5(C)[C@@H](c6ccc(=O)oc6)CC[C@]45O)[C@@]3(C)CC2)[C@H](O)[C@H](O)[C@H]1N (some centres unmarked)		7 nM	56 nM	540 nM	IC50 (Panc-1 (PANC)): 21 nM
C[C@]12CC[C@H](OC(=O)C3CCNC3)C=C1CCC1C2CC[C@]2(C)[C@@H](c3ccc(=O)oc3)CC[C@]12O (some centres unmarked)	210 nM	48 nM	112 nM	480 nM	IC50 (Na-K-ATPase [3]): 299 nM
CC(C)(C)NC(=O)OC1C=C2CCC3C(CCC4(C)C(c5ccc(=O)oc5)CCC34O)C2(C)CC1 (centres unmarked)	104 nM	45 nM	276 nM	207 nM	
COC1O[C@@H]2[C@@H](N)[C@H](C)OC(C[C@@H]3C=C4CCC5C(CC[C@]6(C)[C@@H](c7ccc(=O)oc7)CC[C@]56O)[C@@]4(C)CC3)[C@@H]2O1 (some centres unmarked)		3 nM	12 nM	206 nM	IC50 (Panc-1 (PANC)): 11 nM
CN(C)/N=C1/C=C2CCC3C(CC[C@]4(C)[C@@H](c5ccc(=O)oc5)CC[C@]34O)[C@@]2(C)CC1 (some centres unmarked)	102 nM	23 nM	118 nM	196 nM	
CC12CCC(OC(=O)Nc3ccc(F)cc3)C=C1CCC1C2CCC2(C)C(c3ccc(=O)oc3)CCC12O (centres unmarked)	100 nM	23 nM	142 nM	277 nM	
CC12CCC(=NOCCN3CCCCC3)C=C1CCC1C2CCC2(C)C(c3ccc(=O)oc3)CCC12O (centres unmarked)		7 nM	27 nM	164 nM	IC50 (Panc-1 (PANC)): 16 nM
CCNC(=O)O[C@@H]1C=C2CCC3C(CC[C@]4(C)[C@@H](c5ccc(=O)oc5)CC[C@]34O)[C@@]2(C)CC1 (some centres unmarked)	75 nM	35 nM	82 nM	210 nM	IC50 (Na-K-ATPase [3]): 220 nM
